These are literature values, as cited in US20100272800A1 (SANOVEL ILAC SANAYI VE TICARET ANONIM SIRKETI, priority 2009, published 2010).

`Cc1cc2c(s1)Nc1ccccc1N=C2N1CCN(C)CC1` [Olanzapine, 2-methyl-4-(4-methyl-1-piperazinyl)-10H-thieno[2,3-b][1,5] benzodiazepine]: the solubility in water entry is “practically insoluble in water”.
